{
  "source": "patent US20190083457A1",
  "about": "“MITOCHONDRIAL ALDEHYDE DEHYDROGENASE-2 MODULATORS FOR PROTECTING, EXPANDING AND INCREASING THE POTENCY OF HEMATOPOIETIC STEM CELLS” (The Borad of Trustees of the Leland Stanford Junior …, priority 2017, published 2019)",
  "key": {"HSC": {"system": "HSC", "experiment": "HSC expansion in mice given Alda-1 by continuous subcutaneous infusion", "type": "in vivo, mice (wild-type C57BL/6N)", "protocol": "(§1) Mice (wild-type C57BL/6N were administered with Alda-1 (10 mg/kg.day) or vehicle control (50% DMSO/50% PEG-400) by continuous infusion via subcutaneous osmatic pumps for 3 months.\n(§2) Vehicle control and Alda-1 treated mice were then analyzed for HSC functionality. […] With reference to FIG. 1A and FIG. 1B, error bars show standard deviation, significance computed with Student's t-test. *=p≤0.05."}, "[1]": {"experiment": "Tolerability of chronic Alda-1 administration in vivo", "details": "10 mg/kg.day continuous subcutaneous infusion, 3 months", "protocol": "as §1, §2"}, "HSCs": {"system": "HSCs", "experiment": "Competitive repopulation with HSCs from Alda-1 treated and untreated donors", "type": "in vivo, mice", "details": "FIG. 2", "source_text": "To measure the effects of ALDH2 activation on HSC potency, recipient mice were transplanted with purified HSCs from two donors, one of which had received Alda-1 prior to collection of HSCs for transplant, and another of the same strain which had not received Alda-1 prior to collection for transplant. The two donors were genetically the same except for a difference in the CD45 gene, which allows the blood cells from each to be distinguished from each other and the recipient.\nThe Alda-1 treated donor had received Alda-1 subcutaneously for 2 months prior to HSC collection. The cells from the treated and untreated donors were mixed together prior to transplant at fixed ratios of 1:3 (25%), 1:1 (50%), or 3:1 (75%). A total of 3000 HSCs were given intravenously to immunodeficient (γc^-/- Kit^W41/W41) mice after low dose irradiation. The polymorphonuclear neutrophils (PMN, aka granulocytes) in each recipient mouse were tested at 6 weeks after transplant to determine what proportion of the PMN were derived from each HSC donor.\nWith reference to FIG. 2, the X-axis represents percentage of total cells infused which were from Alda-1 treated donor and the Y-axis represents the actual percentage of PMN observed after HSCT to be derived from Alda-1 treated donor. The linear line represents the predicted ratio if there were no difference in the repopulating ability of the HSC cells."}},
  "note": "Entries after “also recorded” stand apart in the source; their conditions may differ.",
  "data": [
    {"smiles": "O=C(NCc1ccc2c(c1)OCO2)c1c(Cl)cccc1Cl", "note": "[Alda-1]", "values": [
      {"measurement": "HSC expansion (in words)", "setting": "HSC; Alda-1 10 mg/kg.day, subcutaneous osmotic pumps, 3 months, vs vehicle control", "result": "significant HSC expansion"},
      {"measurement": "increase in (LT)-HSCs", "setting": "HSC; Alda-1 10 mg/kg.day, subcutaneous osmotic pumps, 3 months, vs vehicle control, FIG. 1A", "result": 4, "unit": "fold"},
      {"measurement": "increase in (ST)-HSCs", "setting": "HSC; Alda-1 10 mg/kg.day, subcutaneous osmotic pumps, 3 months, vs vehicle control, FIG. 1B", "result": 2, "unit": "fold"},
      {"measurement": "long-term mouse HSC (in words)", "setting": "HSC; FIG. 1A legend", "result": "increases long-term mouse HSC"},
      {"measurement": "short-term HSC (in words)", "setting": "HSC; FIG. 1B legend", "result": "increases short-term HSC"},
      {"measurement": "tolerability of chronic administration", "setting": "[1]", "result": "well tolerated"},
      {"measurement": "origin of PMN in recipient vs ratio of transplanted cells", "setting": "HSCs; 6 weeks after transplant, treated:untreated donor cells 1:3, 1:1 or 3:1", "result": "more likely to be derived from the Alda-1 treated donor than predicted"},
      {"measurement": "potency / repopulating ability of HSC in recipient", "setting": "HSCs; donor given Alda-1 subcutaneously for 2 months, 3000 HSCs i.v. to irradiated immunodeficient mice", "result": "increased repopulating ability; also recorded: increased the potency of HSC in repopulating recipient"}
    ]}
  ]
}
